Assay results taken from patent publication US20070078168A1, “PYRIDINE CARBOXYLIC ACID DERIVATIVES AS GLUCOKINASE MODULATORS” (priority 2003, published 2007).

How the values were obtained:
[1] = Plasma protein binding by equilibrium dialysis; assay type: in vitro ADME; details: rat, 37° C., plasma vs isotonic phosphate buffer pH 7.4, read-out: % free in plasma
Experimental: (§1) Measurement of Plasma Levels and Plasma Protein Binding Following Oral Administration to Rats
The plasma protein binding of compounds was measured using the equilibrium dialysis technique (W. Lindner et al, J. Chromatography, 1996, 677, 1-28 ). Compound was dialysed at a concentration of 20 μM for 18 hours at 37° C. with plasma and isotonic phosphate buffer pH 7.4 (1 ml of each in the dialysis cell). A Spectrum® 20-cell equilibrium dialyser was used together with Teflon, semi-micro dialysis cells and Spectra/Por®2 membrane discs with a molecular weight cut off 12-14000 Dalton, 47 mm (supplied by PerBio Science UK Ltd, Tattenhall, Cheshire). Plasma and buffer samples are removed following dialysis and analysed using HPLCUV/MS (high performance liquid chromatography with UV and mass spec detection) to give the % free level in plasma.

[2] = Plasma levels following oral administration to rats; assay type: in vivo; details: rat, oral gavage; including both bound and free; normalised dose of 1 mg compound per kilogram of rat body weight
Experimental: as §1
Planetary Milled compounds [15 mins, 500 rpm, 5 Zirconium Balls, in a Puluerisette 7 Mill (Glen Creston Ltd, Stanmore, Middlesex, UK)] were suspended in 0.5% HPMC Tween and dosed to High Fat Fed (Research Diets, D12451, ad lib feeding 14 days) Female Alderley Park Zucker or Alderley Park Wistar rats at rate of 5 mls/kg, at doses between 0.3 and 10 mg/kg by oral gavage.
Samples of plasma were obtained either by conscious blood sampling or terminal blood sampling as follows:
Conscious blood sampling (for compound level or blood chemistry)—Intravenous blood samples were taken from tail vein using 600 μl Starstedt Multivette (EDTA) and 22 G needle at the required time point. […]
The reconstituted samples were then analysed using high performance liquid chromatography with tandem mass spectrometry detection (HPLC-MS-MS)”. […]
The concentration of test samples was determined from the ratio of the peak height of the test sample to the peak height of the internal standard. The concentration of the test sample was calculated with reference to a standard curve relating the ratio to the concentration prepared by using known concentrations of test sample added to samples of rat plasma using (3-isopropoxy-5-benzyoxy-benzoyl)amino pyridine 3-carboxylic acid as an internal standard, treated as described above.

fraction unbound at 18 hours, 20 μM [1]: 0.0042
Compound: COC[C@H](C)Oc1cc(O[C@@H](C)Cc2ccccc2OC)cc(C(=O)Nc2ccc(C(=O)O)cn2)c1 [Example 2.1, 6-{3-[(1S)-1-methyl-2-(2-methoxyphenyl)ethoxy]-5-[(1S)-2-methoxy-1-methylethoxy]-benzoylamino}-3-pyridine carboxylic acid]
Peak Blood levels [2]: 1.29 µM
